Experimental findings from patent US8642609B2, “Modulators of ATP-binding cassette transporters” (Vertex Pharmaceuticals Incorporated, priority 2003, dated 2014) are described below.

In this assay the target is T1, ΔF508-CFTR (Homo sapiens, UniProt P13569, DEL508-508).
T1 construct: expressed in transfected cells
In words: Membrane potential optical assay (FRET/VIPR), identification of correction compounds. Format: cell-based. As to conditions: for Emax: relative efficacy. A digest of the protocol: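 NIH3T3 cells stably expressing ΔF508-CFTR incubated 16 hrs at 37° C in serum-free medium with test compound; 27° C incubation as positive control. CFTR then activated with 10 μM forskolin plus 20 μM genistein in Cl^−-free medium; depolarization read by DiSBAC2(3)/CC2-DMPE FRET on VIPR.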

Some results are limits rather than exact numbers.

T1 sequence (P13569 with tags, fused parts or gaps DEL508-508): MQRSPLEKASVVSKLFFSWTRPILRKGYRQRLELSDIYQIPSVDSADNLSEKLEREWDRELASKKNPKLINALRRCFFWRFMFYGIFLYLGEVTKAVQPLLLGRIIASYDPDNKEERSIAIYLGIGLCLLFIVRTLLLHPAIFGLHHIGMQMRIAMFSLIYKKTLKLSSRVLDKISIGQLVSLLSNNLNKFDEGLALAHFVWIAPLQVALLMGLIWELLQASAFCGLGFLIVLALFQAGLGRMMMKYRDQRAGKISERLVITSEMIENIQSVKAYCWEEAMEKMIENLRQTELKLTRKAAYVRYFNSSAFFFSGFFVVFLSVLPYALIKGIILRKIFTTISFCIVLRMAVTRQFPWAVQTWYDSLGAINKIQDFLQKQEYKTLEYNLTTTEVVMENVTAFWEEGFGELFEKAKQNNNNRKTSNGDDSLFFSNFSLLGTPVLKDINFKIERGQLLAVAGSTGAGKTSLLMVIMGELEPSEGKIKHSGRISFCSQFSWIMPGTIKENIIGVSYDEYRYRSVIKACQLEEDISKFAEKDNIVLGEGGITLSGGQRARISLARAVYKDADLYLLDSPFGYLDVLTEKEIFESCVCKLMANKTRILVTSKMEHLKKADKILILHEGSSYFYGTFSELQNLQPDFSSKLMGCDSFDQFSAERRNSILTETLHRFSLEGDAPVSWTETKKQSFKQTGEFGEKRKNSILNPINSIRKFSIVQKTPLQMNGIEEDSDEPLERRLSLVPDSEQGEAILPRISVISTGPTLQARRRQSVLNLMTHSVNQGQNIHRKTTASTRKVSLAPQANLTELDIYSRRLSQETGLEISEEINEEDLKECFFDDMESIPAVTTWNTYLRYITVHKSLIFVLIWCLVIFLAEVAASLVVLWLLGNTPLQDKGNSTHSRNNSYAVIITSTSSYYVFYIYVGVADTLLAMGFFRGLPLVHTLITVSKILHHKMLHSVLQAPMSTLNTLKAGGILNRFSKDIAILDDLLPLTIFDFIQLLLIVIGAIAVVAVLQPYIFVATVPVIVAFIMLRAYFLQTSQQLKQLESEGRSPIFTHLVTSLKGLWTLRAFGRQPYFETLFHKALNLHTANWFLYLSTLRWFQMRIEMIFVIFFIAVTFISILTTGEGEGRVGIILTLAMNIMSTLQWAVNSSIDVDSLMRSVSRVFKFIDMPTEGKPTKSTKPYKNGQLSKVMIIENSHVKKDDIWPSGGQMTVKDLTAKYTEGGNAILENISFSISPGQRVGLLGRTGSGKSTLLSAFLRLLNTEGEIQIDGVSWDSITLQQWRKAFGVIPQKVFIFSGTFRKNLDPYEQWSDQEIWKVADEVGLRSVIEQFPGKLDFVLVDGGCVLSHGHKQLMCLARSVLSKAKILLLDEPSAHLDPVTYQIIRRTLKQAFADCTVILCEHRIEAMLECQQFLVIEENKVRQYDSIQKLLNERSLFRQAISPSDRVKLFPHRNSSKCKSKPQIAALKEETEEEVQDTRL

The EC50 is the concentration that produces a half-maximal response. By Emax is commonly meant the size of the effect at its maximum, as opposed to the concentration needed. Take `Cc1ccccc1C(=O)N1CCN(C(C)c2nc3ccccc3c(=O)n2C)CC1` (stereo not drawn) [compound 32]: the EC50 was below 10 µM and the maximal response (Emax) is below 25%.

Regarding `Cc1noc(C)c1S(=O)(=O)N1CCN(C(C)c2nc3ccccc3c(=O)n2C)CC1` (stereo not drawn) [compound 266], the EC50 was in the range of 25 to 60 µM and the Emax is below 25%.

On to `COc1ccc(S(=O)(=O)N2CCN(C(C)c3nc(NC4CCCCC4)c4ccccc4n3)CC2)cc1` (stereo not drawn) [compound 304], for which the EC50 is below 10 µM and the Emax lay within 25 to 100%.

`CC(c1nc2ccccc2c(=O)n1C)N1CCN(S(=O)(=O)Cc2ccccc2)CC1` (stereo not drawn) [compound 278]: the EC50 lay in the range of 25 to 60 µM and the maximal response (Emax) is below 25%.

Consider `CC(c1nc2ccc(Cl)cc2c(=O)n1C)N1CCN(C(=O)Nc2ccccc2Br)C(C)C1` (stereo not drawn) [compound 2], for which the concentration for a half-maximal effect (EC50) was in the range of 25 to 60 µM and the Emax was in the range of 25 to 100%.

Take `CC(NC1CCN(S(=O)(=O)c2ccc(Cl)cc2)C1)c1nc2ccccc2c(=O)n1C` (stereo not drawn) [compound 225]: the 50% effective concentration (EC50) lay in the range of 25 to 60 µM and the maximal response (Emax) is below 25%.

For `CC(c1nc2ccccc2c(=O)n1C)N1CCN(S(=O)(=O)c2ccccc2C#N)CC1` (stereo not drawn) [compound 259], the EC50 lay within 25 to 60 µM and the Emax is below 25%.

Take `COc1ccc(S(=O)(=O)N2CCN(C(C)c3nc(N4CCC(C)CC4)c4cc(F)ccc4n3)CC2)cc1` (stereo not drawn) [compound 372]: the concentration giving a half-maximal response (EC50) is 10 to 25 µM and the maximal effect (Emax) was above 100%.

In the case of `COc1ccc(S(=O)(=O)N2CCN(C(C)c3nc4ccc(Cl)cc4c(=O)n3C)CC2)cc1OC` (stereo not drawn) [compound 72], the EC50 fell in the range of 10 to 25 µM and the maximum response (Emax) lay in the range of 25 to 100%.

Take `CC(c1nc2ccc(Cl)cc2c(=O)n1C)N1CCN(C(=O)Nc2ccc(Cl)cc2)CC1` (stereo not drawn) [compound 18]: the EC50 was 10 to 25 µM and the Emax was 25 to 100%.

As to `CC(c1nc(OC2CCCC2)c2ccccc2n1)N1CCN(S(=O)(=O)c2ccc(Cl)cc2)CC1` (stereo not drawn) [compound 231], the 50% effective concentration (EC50) is below 10 µM and the Emax is above 100%.

For the compound `CCCC(c1nc2ccccc2c(=O)[nH]1)N1CCN(S(=O)(=O)c2ccc(OC)cc2)CC1` (stereo not drawn) [compound 335], the EC50 was in the range of 10 to 25 µM and the Emax lay within 25 to 100%.

On to `COc1ccc2nc(C(C)N3CCN(S(=O)(=O)c4ccc(C)cc4)CC3)n(C)c(=O)c2c1` (stereo not drawn) [compound 134], for which the half-maximal effective concentration (EC50) was in the range of 10 to 25 µM and the Emax lay in the range of 25 to 100%.

Turning to `COc1ccc(S(=O)(=O)N2CCN(C(C)c3nc4ccccc4c(=O)n3CC(C)(C)C)CC2)cc1` (stereo not drawn) [compound 332], the EC50 lay within 25 to 60 µM and the Emax lay in the range of 25 to 100%.

As for `COc1ccc(S(=O)(=O)N2CCN(C(C)c3nc(N4CCCC(CO)C4)c4ccccc4n3)CC2)cc1` (stereo not drawn) [compound 344], the EC50 was 10 to 25 µM and the maximum response (Emax) fell in the range of 25 to 100%.

As for `CC(c1nc2ccc(C#N)cc2c(=O)n1C)N1CCN(S(=O)(=O)c2ccccc2)CC1` (stereo not drawn) [compound 123], the concentration giving a half-maximal response (EC50) was 10 to 25 µM and the maximal effect (Emax) is below 25%.

Regarding `Cc1cccc(S(=O)(=O)N2CCN(C(C)c3nc4ccc(Cl)cc4c(=O)n3C)CC2)c1` (stereo not drawn) [compound 85], the EC50 was 10 to 25 µM and the maximum response (Emax) was 25 to 100%.

On to `CC(c1nc2ccccc2c(=O)n1C)N(C)C1CCN(S(=O)(=O)c2ccc(Br)cc2)CC1` (stereo not drawn) [compound 306], for which the concentration giving a half-maximal response (EC50) is 25 to 60 µM and the maximal response (Emax) is 25 to 100%.

As to `CC(c1nc2ccc(C(N)=O)cc2c(=O)n1C)N1CCN(S(=O)(=O)c2ccc(Cl)cc2)CC1` (stereo not drawn) [compound 157], the EC50 lay within 25 to 60 µM and the Emax was 25 to 100%.

Turning to `CC(c1nc2ccc(S(C)(=O)=O)cc2c(=O)n1C)N1CCN(S(=O)(=O)c2ccc(Cl)cc2)CC1` (stereo not drawn) [compound 141], the 50% effective concentration (EC50) fell in the range of 10 to 25 µM and the Emax fell in the range of 25 to 100%.

Regarding `Cc1ccc(S(=O)(=O)N2CCN(C(C)c3nc4cccc(Cl)c4c(=O)n3C)CC2)cc1` (stereo not drawn) [compound 107], the EC50 was in the range of 10 to 25 µM and the maximum response (Emax) is below 25%.

For `COc1ccc(S(=O)(=O)N2CCN(C(C)c3nc4ccc(S(C)(=O)=O)cc4c(=O)n3C)CC2)cc1` (stereo not drawn) [compound 140], the EC50 lay in the range of 10 to 25 µM and the maximal response (Emax) fell in the range of 25 to 100%.

Regarding `COc1ccc(S(=O)(=O)N2CCN(Cc3nc(OC4CCCC4)c4ccccc4n3)CC2)cc1` [compound 386], the EC50 was below 10 µM and the maximum response (Emax) was above 100%.

`Cc1ccc(C(=O)N2CCN(C(C)c3nc4cc(Cl)ccc4c(=O)n3C)CC2)cc1` (stereo not drawn) [compound 120]: the EC50 is 10 to 25 µM and the Emax is below 25%.

On to `COc1ccc(S(=O)(=O)N2CCC(NC(C)c3nc4ccccc4c(=O)n3C)C2)cc1` (stereo not drawn) [compound 224], for which the EC50 was in the range of 25 to 60 µM and the maximum response (Emax) is below 25%.

With `COc1ccc(S(=O)(=O)N2CCN(C(C)c3nc(N4CCC(Cc5ccccc5)CC4)c4ccccc4n3)CC2)cc1` (stereo not drawn) [compound 389], the half-maximal effective concentration (EC50) was below 10 µM and the maximal response (Emax) is above 100%.

`CC(c1nc2ccc(Cl)cc2c(=O)n1C)N1CCN(S(=O)(=O)c2ccc(C(F)(F)F)cc2)CC1` (stereo not drawn) [compound 73]: the EC50 was below 10 µM and the Emax was 25 to 100%.

Consider `CNc1nc(C(C)N2CCN(S(=O)(=O)c3ccc(OC)cc3)CC2)nc2ccccc12` (stereo not drawn) [compound 192], for which the concentration for a half-maximal effect (EC50) was 25 to 60 µM and the Emax is 25 to 100%.

As to `COc1ccc(S(=O)(=O)N2CCN(C(C)c3nc(OC4CCC5CC4C5)c4ccccc4n3)CC2)cc1` (stereo not drawn) [compound 400], the half-maximal effective concentration (EC50) was below 10 µM and the Emax is above 100%.

For the compound `COc1ccc(S(=O)(=O)N2CCN(C(C)c3nccc(OC4CCCC4)n3)CC2)cc1` (stereo not drawn) [compound 382], the 50% effective concentration (EC50) lay in the range of 10 to 25 µM and the Emax lay in the range of 25 to 100%.

On to `CC(c1nc2ccccc2c(=O)n1C)N1CCN(S(=O)(=O)c2ccc(Br)cc2)CC1` (stereo not drawn) [compound 51], for which the EC50 was 10 to 25 µM and the Emax was above 100%.

Regarding `COc1ccc2nc(C(C)N3CCN(S(=O)(=O)c4ccc(Cl)cc4)CC3)n(C)c(=O)c2c1` (stereo not drawn) [compound 136], the EC50 was below 10 µM and the maximum response (Emax) was above 100%.

Consider `CCNc1nc(C(C)N2CCN(S(=O)(=O)c3ccc(Cl)cc3)CC2)nc2ccccc12` (stereo not drawn) [compound 234], for which the concentration giving a half-maximal response (EC50) was 10 to 25 µM and the maximal response (Emax) fell in the range of 25 to 100%.

For the compound `COc1ccc(S(=O)(=O)N2CCN(C(C)c3nc(OC4CCC(C)C(C)C4)c4ccccc4n3)CC2)cc1` (stereo not drawn) [compound 348], the concentration giving a half-maximal response (EC50) is below 10 µM and the maximum response (Emax) was above 100%.

Turning to `Cc1ccc(S(=O)(=O)N2CCN(C(C)c3nc4ccc(Br)cc4c(=O)n3C)CC2)cc1` (stereo not drawn) [compound 115], the half-maximal effective concentration (EC50) fell in the range of 10 to 25 µM and the maximal effect (Emax) was below 25%.

For `COc1ccc(S(=O)(=O)N2CCN(C(C)c3nc(N4CCN(C)CC4)c4ccccc4n3)CC2)cc1` (stereo not drawn) [compound 345], the EC50 lay within 25 to 60 µM and the maximum response (Emax) was in the range of 25 to 100%.

On to `COc1ccc(C(=O)N2CCN(C(C)c3nc4cc(Cl)ccc4c(=O)n3C)CC2)cc1` (stereo not drawn) [compound 122], for which the concentration giving a half-maximal response (EC50) was 10 to 25 µM and the Emax is below 25%.

`CCCn1c(C(C)N2CCN(C(=O)Nc3cccc(C#N)c3)CC2)nc2ccccc2c1=O` (stereo not drawn) [compound 23]: the concentration for a half-maximal effect (EC50) was in the range of 25 to 60 µM and the Emax was in the range of 25 to 100%.

Consider `COc1ccc(S(=O)(=O)N2CCN(C(C)c3nc(NC4CCCCC4)c4cc(F)ccc4n3)CC2)cc1` (stereo not drawn) [compound 373], for which the EC50 was in the range of 10 to 25 µM and the maximum response (Emax) lay in the range of 25 to 100%.

As for `CC(c1nc2ccc(Br)cc2c(=O)n1C)N1CCN(S(=O)(=O)c2ccc(Br)cc2)CC1` (stereo not drawn) [compound 118], the concentration giving a half-maximal response (EC50) was below 10 µM and the Emax is 25 to 100%.

On to `Cc1ccc(S(=O)(=O)N2CCN(Cc3nc4ccc(Cl)cc4c(=O)n3C)CC2)cc1` [compound 66], for which the 50% effective concentration (EC50) was 25 to 60 µM and the Emax is below 25%.

Consider `CCCOc1nc(C(C)N2CCN(S(=O)(=O)c3ccc(Br)cc3)CC2)nc2ccccc12` (stereo not drawn) [compound 216], for which the 50% effective concentration (EC50) was below 10 µM and the maximal effect (Emax) is above 100%.

In the case of `CC(c1nc2ccccc2c(=O)n1C)N1CCN(S(=O)(=O)c2ccc(OC(F)(F)F)cc2)CC1` (stereo not drawn) [compound 50], the EC50 is 10 to 25 µM and the maximal effect (Emax) fell in the range of 25 to 100%.

`CCN(CC)c1nc(C(C)N2CCN(S(=O)(=O)c3ccc(Cl)cc3)CC2)nc2ccccc12` (stereo not drawn) [compound 235]: the EC50 was below 10 µM and the Emax was in the range of 25 to 100%.

Regarding `COc1ccc(S(=O)(=O)N2CCN(C(C)c3nc(C(C)C)c4ccccc4n3)CC2)cc1` (stereo not drawn) [compound 310], the EC50 was below 10 µM and the maximal effect (Emax) lay in the range of 25 to 100%.

For the compound `CCCCC(=O)N1CCN(C(C)c2nc3ccc(Cl)cc3c(=O)n2C)CC1` (stereo not drawn) [compound 16], the EC50 was in the range of 25 to 60 µM and the Emax is below 25%.

With `CC(c1nc2ccc(Cl)cc2c(=O)n1C)N1CCN(S(=O)(=O)c2cccc(Cl)c2)CC1` (stereo not drawn) [compound 64], the concentration for a half-maximal effect (EC50) lay in the range of 10 to 25 µM and the Emax fell in the range of 25 to 100%.

Consider `CCCOc1nc(C(C)N2CCN(S(=O)(=O)c3ccc(OC)cc3)CC2)nc2ccccc12` (stereo not drawn) [compound 189], for which the concentration giving a half-maximal response (EC50) was in the range of 10 to 25 µM and the maximal response (Emax) was above 100%.

In the case of `CC(=O)N1CCN(C(C)c2nc3ccc(Cl)cc3c(=O)n2C)CC1` (stereo not drawn) [compound 60], the EC50 was in the range of 25 to 60 µM and the maximal effect (Emax) was below 25%.

For the compound `CC(c1nc2ccccc2c(=O)n1C)N1CCC(N)CC1` (stereo not drawn) [compound 180], the concentration for a half-maximal effect (EC50) was 25 to 60 µM and the Emax is below 25%.

For `CCCC(c1nc2ccccc2c(=O)n1C)N1CCN(S(=O)(=O)c2ccc(OC)cc2)CC1` (stereo not drawn) [compound 340], the concentration for a half-maximal effect (EC50) is below 10 µM and the maximal response (Emax) was above 100%.

In the case of `COc1ccc(S(=O)(=O)N2CCN(C(C)c3nc(N4CCCC4)c4ccccc4n3)CC2)cc1` (stereo not drawn) [compound 333], the EC50 lay within 10 to 25 µM and the maximal response (Emax) lay in the range of 25 to 100%.

On to `CC(c1nc2cc(Cl)ccc2c(=O)n1C)N1CCN(S(=O)(=O)c2ccc(C(F)(F)F)cc2)CC1` (stereo not drawn) [compound 98], for which the concentration for a half-maximal effect (EC50) is below 10 µM and the Emax lay in the range of 25 to 100%.

Regarding `CCCn1c(C(C)N2CCN(C(=O)Nc3ccc(F)cc3F)CC2)nc2ccccc2c1=O` (stereo not drawn) [compound 24], the EC50 was 25 to 60 µM and the Emax was 25 to 100%.
